According to PMC9604066 (International Journal of Molecular Sciences, 2022):
Values after ≈ are worked out from the molar mass of the structure shown.

Columns and labels:
[1] = test system: 17D vaccine strain of YFV; conditions: cited from earlier work
[2] = test system: YFV strain 17D (Stamaril) on Huh-7 cells; assay: microbe, parasite or virus in culture; format: cell-based, yellow fever virus; conditions: for EC50: Yellow fever virus, Huh-7
in vitro = conditions: human
yellow fever = conditions: rhesus monkey, in vivo; cited from earlier work

| SMILES | EC50 [2] [µM] | logP (physchem) | also measured |
| --- | --- | --- | --- |
| C[C@@]1(O)[C@H](O)[C@@H](CO)O[C@H]1n1ccc(N)nc1=O [2-C-methylcytidine] | – | – | EC90 [1]: 0.32 µg/mL (≈ 1.24 µM); SI [1]: 141 |
| CN1CC(=O)N(c2ccccc2)C1c1cc2cc(Cc3ccc4oc(C5N(C)CC(=O)N5c5ccccc5)cc4c3)ccc2o1 (stereo not drawn) [2a, (2″R,2‴R)-, (2″S,2‴S)-, and meso-(2″R,2‴S)-5,5′-Methylenebis[2-(N-methyl-3″-phenyl-4″-oxo-1″,3″-imidazolidin-2″-yl)benzofuran]] | > 133 | 4.75 | – |
| Cc1ccc(N2C(=O)CN(C)C2c2cc3cc(Cc4ccc5oc(C6N(C)CC(=O)N6c6ccc(C)cc6)cc5c4)ccc3o2)cc1 (stereo not drawn) [2b, (2″R,2‴R)-, (2″S,2‴S)-, and meso-(2″R,2‴S)-5,5′-Methylenebis(2-[N-methyl-3″-(4-methylphenyl)-4″-oxo-1″,3″-imidazolidin-2″-yl]benzofuran)] | > 160 | – | – |
| Cc1cccc(N2C(=O)CN(C)C2c2cc3cc(Cc4ccc5oc(C6N(C)CC(=O)N6c6cccc(C)c6C)cc5c4)ccc3o2)c1C (stereo not drawn) [2c, (2″R,2‴R)-, (2″S,2‴S)-, and meso-(2″R,2‴S)-5,5′-Methylenebis(2-[N-methyl-3″-(2,3-dimethylphenyl)-4″-oxo-1″,3″-imidazolidin-2″-yl]benzofuran)] | 6.75 | 3.77 | CC50 (in vitro): 41 µM |
| Cc1ccc(C)c(N2C(=O)CN(C)C2c2cc3cc(Cc4ccc5oc(C6N(C)CC(=O)N6c6cc(C)ccc6C)cc5c4)ccc3o2)c1 (stereo not drawn) [2d, (2″R,2‴R)-, (2″S,2‴S)-, and meso-(2″R,2‴S)-5,5′-Methylenebis(2-[N-methyl-3″-(2,5-dimethylphenyl)-4″-oxo-1″,3″-imidazolidin-2″-yl]benzofuran)] | 7.7 | 4.38 | SI [2]: 2.40; CC50 (in vitro): 18.5 µM |
| Cc1cc(C)cc(N2C(=O)CN(C)C2c2cc3cc(Cc4ccc5oc(C6N(C)CC(=O)N6c6cc(C)cc(C)c6)cc5c4)ccc3o2)c1 (stereo not drawn) [2e, (2″R,2‴R)-, (2″S,2‴S)-, and meso-(2″R,2‴S)-5,5′-Methylenebis[2-(N-methyl-3″-(3,5-dimethylphenyl)-4″-oxo-1″,3″-imidazolidin-2″-yl)benzofuran]] | 3.54 | 4.15 | CC50 (in vitro): 54.1 µM |
| COc1ccc(N2C(=O)CN(C)C2c2cc3cc(Cc4ccc5oc(C6N(C)CC(=O)N6c6ccc(OC)cc6)cc5c4)ccc3o2)cc1 (stereo not drawn) [2g, (2″R,2‴R)-, (2″S,2‴S)-, and meso-(2″R,2‴S)-5,5′-Methylenebis(2-[N-methyl-3″-(4-methoxyphenyl)-4″-oxo-1″,3″-imidazolidin-2″-yl]benzofuran)] | > 152 | 4.25 | – |
| CN1CC(=O)N(c2ccc(F)cc2)C1c1cc2cc(Cc3ccc4oc(C5N(C)CC(=O)N5c5ccc(F)cc5)cc4c3)ccc2o1 (stereo not drawn) [2h, (2″R,2‴R)-, (2″S,2‴S)-, and meso-(2″R,2‴S)-5,5′-Methylenebi(2-[N-methyl-3″-(4-fluorophenyl)-4″-oxo-1″,3″-imidazolidin-2″-yl]benzofuran)] | 23.5 | 4.6 | SI [2]: 1.63; CC50 (in vitro): 38.5 µM |
| CN1CC(=O)N(c2ccc(Cl)cc2)C1c1cc2cc(Cc3ccc4oc(C5N(C)CC(=O)N5c5ccc(Cl)cc5)cc4c3)ccc2o1 (stereo not drawn) [2i, (2″R,2‴R)-, (2″S,2‴S)-, and meso-(2″R,2‴S)-5,5′-Methylenebis(2-[N-methyl-3″-(4-chlorophenyl)-4″-oxo-1″,3″-imidazolidin-2″-yl]benzofuran)] | 14.4 | – | SI [2]: 0.85; CC50 (in vitro): 12.3 µM |
| CN1CC(=O)N(c2ccc(Br)cc2)C1c1cc2cc(Cc3ccc4oc(C5N(C)CC(=O)N5c5ccc(Br)cc5)cc4c3)ccc2o1 (stereo not drawn) [2j, (2″R,2‴R)-, (2″S,2‴S)-, and meso-(2″R,2‴S)-5,5′-Methylenebis(2-[N-methyl-3″-(4-bromophenyl)-4″-oxo-1″,3″-imidazolidin-2″-yl]benzofuran)] | > 133 | – | – |
| CN1CC(=O)N(c2cccc(C(F)(F)F)c2)C1c1cc2cc(Cc3ccc4oc(C5N(C)CC(=O)N5c5cccc(C(F)(F)F)c5)cc4c3)ccc2o1 (stereo not drawn) [2k, (2″R,2‴R)-, (2″S,2‴S)-, and meso-(2″R,2‴S)-5,5′-Methylenebis(2-[N-methyl-3″-(3-trifluoromethyl)phenyl-4″-oxo-1″,3″-imidazolidin-2″-yl]benzofuran)] | 8.89 | 5.16 | CC50 (in vitro): 75 µM |
| c1ccc(Cn2c(-c3cc4cc(Cc5ccc6oc(-c7nc8ccccc8n7Cc7ccccc7)cc6c5)ccc4o3)nc3ccccc32)cc1 [3a, 5,5′-Methylenebis[2-(1-benzylbenzimidazol-2-yl)benzofuran]] | > 114 | – | – |
| Cc1ccc(Cn2c(-c3cc4cc(Cc5ccc6oc(-c7nc8ccccc8n7Cc7ccc(C)cc7)cc6c5)ccc4o3)nc3ccccc32)cc1 [3b, 5,5′-Methylenebis(2-[1-(p-methylbenzyl)benzimidazol-2-yl]benzofuran)] | > 145 | – | – |
| COc1cccc(Cn2c(-c3cc4cc(Cc5ccc6oc(-c7nc8ccccc8n7Cc7cccc(OC)c7)cc6c5)ccc4o3)nc3ccccc32)c1 [3c, 5,5′-Methylenebis(2-[1-(m-methoxybenzyl)benzimidazol-2-yl]benzofuran)] | > 139 | – | – |
| COc1ccc(Cn2c(-c3cc4cc(Cc5ccc6oc(-c7nc8ccccc8n7Cc7ccc(OC)cc7)cc6c5)ccc4o3)nc3ccccc32)cc1 [3d, 5,5′-Methylenebis(2-[1-(p-methoxybenzyl)benzimidazol-2-yl]benzofuran)] | 27.7 | – | – |
| Fc1ccccc1Cn1c(-c2cc3cc(Cc4ccc5oc(-c6nc7ccccc7n6Cc6ccccc6F)cc5c4)ccc3o2)nc2ccccc21 [3e, 5,5′-Methylenebis(2-[1-(o-fluorobenzyl)benzimidazol-2-yl]benzofuran)] | > 21.5 | 4.65 | – |
| Fc1ccc(Cn2c(-c3cc4cc(Cc5ccc6oc(-c7nc8ccccc8n7Cc7ccc(F)cc7)cc6c5)ccc4o3)nc3ccccc32)cc1 [3f, 5,5′-Methylenebis(2-[1-(p-fluorobenzyl)benzimidazol-2-yl]benzofuran)] | 28.7 | – | – |
| Clc1ccccc1Cn1c(-c2cc3cc(Cc4ccc5oc(-c6nc7ccccc7n6Cc6ccccc6Cl)cc5c4)ccc3o2)nc2ccccc21 [3g, 5,5′-Methylenebis(2-[1-(o-chlorobenzyl)benzimidazol-2-yl]benzofuran)] | > 137 | – | – |
| Clc1ccc(Cn2c(-c3cc4cc(Cc5ccc6oc(-c7nc8ccccc8n7Cc7ccc(Cl)cc7)cc6c5)ccc4o3)nc3ccccc32)cc1 [3h, 5,5′-Methylenebis(2-[1-(p-chlorobenzyl)benzimidazol-2-yl]benzofuran)] | > 103 | – | – |
| Brc1cccc(Cn2c(-c3cc4cc(Cc5ccc6oc(-c7nc8ccccc8n7Cc7cccc(Br)c7)cc6c5)ccc4o3)nc3ccccc32)c1 [3i, 5,5′-Methylenebis(2-[1-(m-bromobenzyl)benzimidazol-2-yl]benzofuran)] | 91.6 | – | – |
| CC(C)n1c(-c2cc3cc(Cc4ccc5oc(-c6nc7ccccc7n6C(C)C)cc5c4)ccc3o2)nc2ccccc21 [3j, 5,5′-Methylenebis[2-(1-isopropylbenzimidazol-2-yl)benzofuran]] | 6.14 | 3.71 | CC50 (in vitro): 69.3 µM |
| c1ccc2c(c1)nc(-c1cc3cc(Cc4ccc5oc(-c6nc7ccccc7n6C6CCCC6)cc5c4)ccc3o1)n2C1CCCC1 [3k, 5,5′-Methylenebis[2-(1-cyclopentylbenzimidazol-2-yl)benzofuran]] | > 162 | – | – |
| c1ccc2c(c1)nc(-c1cc3cc(Cc4ccc5oc(-c6nc7ccccc7n6C6CCCCC6)cc5c4)ccc3o1)n2C1CCCCC1 [3l, 5,5′-Methylenebis[2-(1-cyclohexylbenzimidazol-2-yl)benzofuran]] | > 28.7 | – | – |
| NC(=O)c1ncn([C@@H]2O[C@H](CO)[C@@H](O)[C@H]2O)n1 [Ribavirin] | – | – | survival (yellow fever): lack of improved survival |
| O=Cc1cc2cc(Cc3ccc4oc(C=O)cc4c3)ccc2o1 [compound 7] | > 329 | 3.75 | activity towards YFV [2]: did not exhibit any activity |
| CCOC(=O)c1cc2cc(Cc3ccc4oc(C(=O)OCC)cc4c3)ccc2o1 [compound 10] | > 255 | – | activity towards YFV [2]: did not exhibit any activity |
| O=C(O)c1cc2cc(Cc3ccc4oc(C(=O)O)cc4c3)ccc2o1 [compound 11] | > 297 | – | activity towards YFV [2]: did not exhibit any activity |
